Laboratory results: US6979686B1, “Substituted pyrazoles as p38 kinase inhibitors” (Pharmacia Corporation, priority 2001, dated 2005)

The compounds below were run against T1, human p38 kinase alpha (Homo sapiens, UniProt Q16539) (assay: p38 kinase in vitro assay, phosphorylation of biotinylated PHAS-I with 32P-ATP). Settings: @ 1.0 uM.
T1 construct: GST (N, cleaved yes); made in house; host or cells: E. coli DH10B
Format: biochemical

T1 sequence (Q16539 whole entry): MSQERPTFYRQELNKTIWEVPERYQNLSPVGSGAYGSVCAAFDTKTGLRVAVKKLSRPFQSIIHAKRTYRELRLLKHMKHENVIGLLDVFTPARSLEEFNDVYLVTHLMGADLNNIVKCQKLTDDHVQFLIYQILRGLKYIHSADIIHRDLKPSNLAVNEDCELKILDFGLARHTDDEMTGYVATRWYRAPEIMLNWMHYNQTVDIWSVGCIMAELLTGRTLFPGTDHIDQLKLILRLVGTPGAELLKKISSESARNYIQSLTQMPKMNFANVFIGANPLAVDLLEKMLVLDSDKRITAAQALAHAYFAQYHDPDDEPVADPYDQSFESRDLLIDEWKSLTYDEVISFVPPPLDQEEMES

Going from `CC(C)C(=O)NCCCc1[nH]nc(-c2ccc(F)cc2)c1-c1ccncc1` [Example B-1160] to `CC(C)COC(=O)NCCCc1[nH]nc(-c2ccc(F)cc2)c1-c1ccncc1` [Example B-1187], the “P38 alpha kinase % inhib @ conc. (uM)” value falls from 79.0% @ to 76.0% @.

Going from `CC(=O)OC(C)(C)C(=O)NCCCc1[nH]nc(-c2ccc(F)cc2)c1-c1ccncc1` [Example B-1163] to `COCC(=O)NCCCc1[nH]nc(-c2ccc(F)cc2)c1-c1ccncc1` [Example B-1171], the “P38 alpha kinase % inhib @ conc. (uM)” value rises from 74.0% @ to 78.0% @.

Compared with `O=C(NCCCc1[nH]nc(-c2ccc(F)cc2)c1-c1ccncc1)c1cccc(Br)c1` [Example B-1167], `O=C(NCCCc1[nH]nc(-c2ccc(F)cc2)c1-c1ccncc1)c1ccccc1` [Example B-1180] is higher in “P38 alpha kinase % inhib @ conc. (uM)” value: 70.0% @ for the first, 78.0% @ for the second.

Compared with `O=C(NCCCc1[nH]nc(-c2ccc(F)cc2)c1-c1ccncc1)c1ccc(I)cc1` [Example B-1168], `Cc1ccc(C(=O)NCCCc2[nH]nc(-c3ccc(F)cc3)c2-c2ccncc2)cc1` [Example B-1179] is higher in “P38 alpha kinase % inhib @ conc. (uM)” value: 66.0% @ for the first, 86.0% @ for the second.

Going from `O=C(NCCCc1[nH]nc(-c2ccc(F)cc2)c1-c1ccncc1)c1ccno1` [Example B-1169] to `O=C(NCCCc1[nH]nc(-c2ccc(F)cc2)c1-c1ccncc1)c1cccnc1` [Example B-1182], the “P38 alpha kinase % inhib @ conc. (uM)” value falls from 80.0% @ to 72.0% @.

Going from `COc1ccccc1C(=O)NCCCc1[nH]nc(-c2ccc(F)cc2)c1-c1ccncc1` [Example B-1172] to `O=C(NCCCc1[nH]nc(-c2ccc(F)cc2)c1-c1ccncc1)c1ccccc1C(F)(F)F` [Example B-1173], the “P38 alpha kinase % inhib @ conc. (uM)” value falls from 68.0% @ to 65.0% @.

Going from `O=C(NCCCc1[nH]nc(-c2ccc(F)cc2)c1-c1ccncc1)c1ccc(F)c(F)c1F` [Example B-1174] to `O=C(NCCCc1[nH]nc(-c2ccc(F)cc2)c1-c1ccncc1)c1ccncc1` [Example B-1183], the “P38 alpha kinase % inhib @ conc. (uM)” value falls from 80.0% @ to 77.0% @.

Going from `COc1cccc(CC(=O)NCCCc2[nH]nc(-c3ccc(F)cc3)c2-c2ccncc2)c1` [Example B-1178] to `CC(Oc1ccccc1)C(=O)NCCCc1[nH]nc(-c2ccc(F)cc2)c1-c1ccncc1` (centres unmarked) [Example B-1186], the “P38 alpha kinase % inhib @ conc. (uM)” value falls from 92.0% @ to 83.0% @.

Going from `O=C(NCCCc1[nH]nc(-c2ccc(F)cc2)c1-c1ccncc1)C1CCCC1` [Example B-1181] to `O=C(NCCCc1[nH]nc(-c2ccc(F)cc2)c1-c1ccncc1)c1ccccn1` [Example B-1184], the “P38 alpha kinase % inhib @ conc. (uM)” value falls from 79.0% @ to 69.0% @.

Compared with `O=C(NCCCc1[nH]nc(-c2ccc(F)cc2)c1-c1ccncc1)c1cnc2ccccc2n1` [Example B-1189], `O=S(=O)(NCCCc1[nH]nc(-c2ccc(F)cc2)c1-c1ccncc1)c1ccccc1` [Example B-1191] is higher in “P38 alpha kinase % inhib @ conc. (uM)” value: 68.0% @ for the first, 74.0% @ for the second.

Compared with `O=S(=O)(NCCCc1[nH]nc(-c2ccc(F)cc2)c1-c1ccncc1)c1ccc(F)cc1` [Example B-1190], `O=S(=O)(NCCCc1[nH]nc(-c2ccc(F)cc2)c1-c1ccncc1)c1ccc(F)cc1F` [Example B-1195] is lower in “P38 alpha kinase % inhib @ conc. (uM)” value: 78.0% @ for the first, 52.0% @ for the second.

First: CC(C)S(=O)(=O)NCCCc1[nH]nc(-c2ccc(F)cc2)c1-c1ccncc1 [Example B-1192]
Second: O=S(=O)(NCCCc1[nH]nc(-c2ccc(F)cc2)c1-c1ccncc1)C(F)(F)F [Example B-1196]
The “P38 alpha kinase % inhib @ conc. (uM)” value of the first is higher: 84.0% @ for the first, 74.0% @ for the second.

First: O=S(=O)(C=Cc1ccccc1)NCCCc1[nH]nc(-c2ccc(F)cc2)c1-c1ccncc1 [Example B-1193]
Second: O=S(=O)(Cc1ccccc1)NCCCc1[nH]nc(-c2ccc(F)cc2)c1-c1ccncc1 [Example B-1194]
The “P38 alpha kinase % inhib @ conc. (uM)” value of the first is lower: 69.0% @ for the first, 87.0% @ for the second.

First: O=S(=O)(NCCCc1[nH]nc(-c2ccc(F)cc2)c1-c1ccncc1)c1ccccc1F [Example B-1197]
Second: O=S(=O)(NCCCc1[nH]nc(-c2ccc(F)cc2)c1-c1ccncc1)c1cccs1 [Example B-1203]
The “P38 alpha kinase % inhib @ conc.” value of the first is lower: 77.0% @ for the first, 84.0% @ for the second.

Compared with `CCCS(=O)(=O)NCCCc1[nH]nc(-c2ccc(F)cc2)c1-c1ccncc1` [Example B-1198], `CCCCS(=O)(=O)NCCCc1[nH]nc(-c2ccc(F)cc2)c1-c1ccncc1` [Example B-1199] is lower in “P38 alpha kinase % inhib @ conc.” value: 92.0% @ for the first, 87.0% @ for the second.

Going from `CCS(=O)(=O)NCCCc1[nH]nc(-c2ccc(F)cc2)c1-c1ccncc1` [Example B-1200] to `CS(=O)(=O)NCCCc1[nH]nc(-c2ccc(F)cc2)c1-c1ccncc1` [Example B-1201], the “P38 alpha kinase % inhib @ conc.” value falls from 95.0% @ to 84.0% @.

Compared with `COc1ccc(S(=O)(=O)NCCCc2[nH]nc(-c3ccc(F)cc3)c2-c2ccncc2)cc1` [Example B-1202], `Cc1ccc(S(=O)(=O)NCCCc2[nH]nc(-c3ccc(F)cc3)c2-c2ccncc2)cc1` [Example B-1204] is lower in “P38 alpha kinase % inhib @ conc.” value: 71.0% @ for the first, 68.0% @ for the second.

First: COc1ccc(S(=O)(=O)NCCCc2[nH]nc(-c3ccc(F)cc3)c2-c2ccncc2)cc1OC [Example B-1205]
Second: NC(=O)NCCCc1[nH]nc(-c2ccc(F)cc2)c1-c1ccncc1 [Example B-1207]
The “P38 alpha kinase % inhib @ conc.” value of the first is lower: 74.0% @ for the first, 90.0% @ for the second.

First: CC(C)NC(=O)NCCCc1[nH]nc(-c2ccc(F)cc2)c1-c1ccncc1 [Example B-1206]
Second: O=C(NCCCc1[nH]nc(-c2ccc(F)cc2)c1-c1ccncc1)N1CCCC1 [Example B-1209]
The “P38 alpha kinase % inhib @ conc.” value of the first is lower: 81.0% @ for the first, 86.0% @ for the second.

Compared with `O=C(NCCCc1[nH]nc(-c2ccc(F)cc2)c1-c1ccncc1)NCc1ccccc1` [Example B-1208], `O=C(NCCCc1[nH]nc(-c2ccc(F)cc2)c1-c1ccncc1)Nc1ccc(F)cc1` [Example B-1211] is higher in “P38 alpha kinase % inhib @ conc.” value: 82.0% @ for the first, 88.0% @ for the second.

In the case of `O=C(NCCCc1[nH]nc(-c2ccc(F)cc2)c1-c1ccncc1)N1CCOCC1` [Example B-1210], the “P38 alpha kinase % inhib @ conc.” value is reported as 82.0% @.

Same assay, conditions: in vitro P38-alpha kinase inhibition; read-out: P38 alpha kinase IC50

Compared with `O=C(NCCc1[nH]nc(-c2ccc(F)cc2)c1-c1ccncc1)c1cccc2ccccc12` [Example B-1128], `O=C(NCCc1[nH]nc(-c2ccc(F)cc2)c1-c1ccncc1)c1ccccc1F` [Example B-1150] is 5.4-fold lower in IC50: 2550 nM for the first, 470 nM for the second. The second is the more potent here.

Compared with `O=C(NCCc1[nH]nc(-c2ccc(F)cc2)c1-c1ccncc1)c1ccc(F)c(F)c1` [Example B-1129], `O=C(NCCc1[nH]nc(-c2ccc(F)cc2)c1-c1ccncc1)c1cc(F)ccc1F` [Example B-1148] is 2.5-fold lower in IC50: 1070 nM for the first, 430 nM for the second.

First: O=C(NCCc1[nH]nc(-c2ccc(F)cc2)c1-c1ccncc1)c1c(F)ccc(F)c1F [Example B-1131]
Second: O=C(NCCc1[nH]nc(-c2ccc(F)cc2)c1-c1ccncc1)c1c(F)cccc1F [Example B-1151]
The IC50 of the first is 4.2-fold lower: 76 nM for the first, 320 nM for the second.

`Cc1cc(C)c(C(=O)NCCc2[nH]nc(-c3ccc(F)cc3)c2-c2ccncc2)c(C)c1` [Example B-1133] and `Cc1noc(C)c1C(=O)NCCc1[nH]nc(-c2ccc(F)cc2)c1-c1ccncc1` [Example B-1157] are within 1.5-fold of each other in IC50: 380 nM for the first, 260 nM for the second.

`O=C(NCCc1[nH]nc(-c2ccc(F)cc2)c1-c1ccncc1)c1cc(C(F)(F)F)ccc1F` [Example B-1134] and `O=C(NCCc1[nH]nc(-c2ccc(F)cc2)c1-c1ccncc1)c1ccc(C(F)(F)F)cc1F` [Example B-1136] are within 1.5-fold of each other in IC50: 1710 nM for the first, 1170 nM for the second.

First: O=C(NCCc1[nH]nc(-c2ccc(F)cc2)c1-c1ccncc1)c1c(F)cc(F)cc1F [Example B-1135]
Second: O=C(NCCc1[nH]nc(-c2ccc(F)cc2)c1-c1ccncc1)c1cc(F)c(F)cc1F [Example B-1149]
The IC50 of the first is 6.7-fold lower: 230 nM for the first, 1550 nM for the second. The first is the more potent here.

First: O=C(NCCc1[nH]nc(-c2ccc(F)cc2)c1-c1ccncc1)c1c(F)cccc1C(F)(F)F [Example B-1137]
Second: O=C(NCCc1[nH]nc(-c2ccc(F)cc2)c1-c1ccncc1)c1ccc(F)c(C(F)(F)F)c1 [Example B-1140]
The IC50 of the first is 44-fold lower: 38 nM for the first, 1680 nM for the second.

Compared with `O=C(NCCc1[nH]nc(-c2ccc(F)cc2)c1-c1ccncc1)c1cc(F)cc(C(F)(F)F)c1` [Example B-1141], `O=C(NCCc1[nH]nc(-c2ccc(F)cc2)c1-c1ccncc1)c1cccc(F)c1` [Example B-1145] is 2.3-fold lower in IC50: 2470 nM for the first, 1070 nM for the second.

Compared with `Cc1cccc(C(=O)NCCc2[nH]nc(-c3ccc(F)cc3)c2-c2ccncc2)c1` [Example B-1143], `O=C(NCCc1[nH]nc(-c2ccc(F)cc2)c1-c1ccncc1)c1cccc(Cl)c1` [Example B-1153] is 13-fold higher in IC50: 170 nM for the first, 2220 nM for the second. The first is the more potent here.

First: O=C(NCCc1[nH]nc(-c2ccc(F)cc2)c1-c1ccncc1)c1ccc(Cl)cc1Cl [Example B-1144]
Second: O=C(NCCc1[nH]nc(-c2ccc(F)cc2)c1-c1ccncc1)c1c(Cl)cccc1Cl [Example B-1147]
The IC50 of the first is 4.6-fold higher: 440 nM for the first, 95 nM for the second. The second is the more potent here.

Going from `O=C(NCCc1[nH]nc(-c2ccc(F)cc2)c1-c1ccncc1)c1cccc(F)c1F` [Example B-1146] to `O=C(NCCc1[nH]nc(-c2ccc(F)cc2)c1-c1ccncc1)c1ccc(F)cc1F` [Example B-1152], the IC50 rises from 470 nM to 730 nM (1.6-fold).

Going from `O=C(NCCc1[nH]nc(-c2ccc(F)cc2)c1-c1ccncc1)c1ccccc1Br` [Example B-1154] to `O=C(NCCc1[nH]nc(-c2ccc(F)cc2)c1-c1ccncc1)c1cccs1` [Example B-1156], the IC50 rises from 85 nM to 270 nM (3.2-fold).
